One experiment has as its system A375-NRAS^Q61K cells. Put plainly: CTGlo Cell Viability Assay, A375-NRAS^Q61K (A375.11) cells, 96 hours. The format is cell-based, human. The settings on record: A375.11 (A375-NRAS^Q61K) cells; for Emax / CTGlo A375.11 96 hours Emax: lowest % viability achieved. As for the experimental part: Compounds of this invention were tested for their effect on the viability of A375-NRAS^Q61K cells by quantification of ATP using the CellTiter-Glo® 2.0 Cell Viability Assay (Catalog No. G9243, Promega, Madison, WI, USA). This assay produces a luminescent signal in the presence of ATP, which is indicative of metabolically active cells, making the luminescence readout proportional to the number of viable cells.
A375-NRAS^Q61K cells (harboring BRAF homozygous V600E mutation and NRAS homozygous Q61K mutation) were purchased from ATCC (Catalog No. CRL-1619IG-2, Manassas, VA, USA). A375-NRAS^Q61K cells (also referred to here as A375.11) were maintained at 37° C. in an atmosphere of 5% CO2 in Dulbecco's modified Eagle Medium (DMEM) with high glucose (Catalog No. 11965092), supplemented with 10% fetal bovine serum (FBS; Catalog No. 10437036), and 10 mM HEPES (Catalog No. 15630130), all obtained from Thermofisher Scientific (Waltham, MA, USA). Cell culture flasks and 384-well microplates were acquired from VWR (Radnor, PA, USA).
Test compounds were prepared by dissolving neat compounds in DMSO (Catalog No. D8418, Sigma-Aldrich, Inc., St. Louis, MO, USA) to generate 10 mM stock solutions, which were serially diluted (half log) in DMSO to generate an 11-point dose series (1000× final treatment concentration) in a 384-Well Low Dead Volume Microplate (Catalog No. LP-0200, Labcyte, San Jose, CA, USA). Using the Echo 550 Acoustic Liquid Handler (Labcyte), 50 nL of serially diluted compound solutions were dispensed in duplicate to 384-well TC-treated microplates (Catalog No. 3571, Corning, Glendale, CA, USA) and 50 nL of DMSO was dispensed to control wells. A375-NRAS^Q61K cells were resuspended in growth media and added to 384-well plates containing a […] of compounds in duplicate (maximum 10 μM concentration for final treatment) at a density of 250 cells/well in 50 μl. Cells were also plated to a 384-well plate with no compound treatment, to which CellTiter-Glo® reagent was added and luminescence was read right after plating to act as a baseline signal at time of plating (To). Plates treated with compound were then spun briefly, and cells were incubated with compound at 37° C. for 96 hours.
After 96 hours compound treatment, CellTiter-Glo® reagent was added to the cells at 25 μl per well and luminescence was read out on the PHERAstar plate reader (BMG Labtech, Ortenberg, Germany). Cells treated with DMSO only (no test compound treatment) were used as the negative control (N). DMSO treated cells with no CellTiter-Glo® reagent added were used as the background or positive control (P). Viability was determined by subtracting out the average background signal (P) and normalized to the average untreated signal (N) set at 100%.
Data were analyzed with a 4-parameter logistic fit to generate sigmoidal dose-response curves. The half-maximal inhibition of cell growth (GI50) is the concentration at which the fitted curve crosses 50%. The Emax, or maximum effect of each compound, represents the lowest % viability achieved following compound treatment.

The target of another experiment is T1, BRAF V600E (Homo sapiens, UniProt P15056+Q96SW2, V600E).
T1 construct: knock-in of the HiBiT tag to the endogenous BRAF V600E locus; host or cells: A375.10 (A375 clonal line, CRISPR HiBiT knock-in at the endogenous BRAF V600E locus)
Put plainly: BRAF V600E HiBiT Degradation Assay. In kind it is cell-based. The settings on record: for Emax: read-out: HiBiT-Degradation A375.10 BRAF 2 hours Emax. As for the experimental part: Compounds of this invention were tested for degradation of mutant BRAF V600E using the HiBiT assay, a luminescence-based assay for quantification of cellular protein levels using the Nano-Glo® HiBiT Lytic Detection System (Catalog No. N3050, Promega, Madison, WI USA). This assay utilizes the HiBiT tag on a protein of interest, which creates a luminescent signal in the presence of a complementing peptide and its substrate, the quantification of which is proportional to the amount of HiBiT-tagged protein in the cell.
The cell line A375, which is homozygous for the BRAF V600E mutation, was purchased from ATCC (Catalog No. CRL-1619, Manassas, VA, USA). A375 cells were engineered to express HiBiT tagged BRAF V600E by CRISPR knock-in of the HiBiT tag to the endogenous BRAF V600E locus, followed by selection of a clonal population containing the appropriate knock-in (referred to here as cell line A375.10). A375.10 cells were maintained at 37° C. in an atmosphere of 5% CO2 in Dulbecco's modified Eagle Medium (DMEM) with high glucose (Catalog No. 11965092), supplemented with 10% fetal bovine serum (FBS; Catalog No. 10437036), and 10 mM HEPES (Catalog No. 15630130), all obtained from Thermofisher Scientific (Waltham, MA, USA). Cell culture flasks and 384-well microplates were acquired from VWR (Radnor, PA, USA).
Test compounds were prepared by dissolving neat compounds in DMSO (Catalog No. D8418, Sigma-Aldrich, Inc., St. Louis, MO, USA) to generate 10 mM stock solutions, which were serially diluted (half log) in DMSO to generate an 11-point dose series (1000× final treatment concentration) in a 384-Well Low Dead Volume Microplate (Catalog No. LP-0200, Labcyte, San Jose, CA, USA). Using the Echo 550 Acoustic Liquid Handler (Labcyte), 30 nL of serially diluted compound solutions were dispensed in duplicate to 384-well TC-treated microplates (Catalog No. 3571, Corning, Glendale, CA, USA) and 30 nL of DMSO was dispensed to control wells. A375.10 cells resuspended in growth media without phenol red (Catalog No. 21063-029, Thermofisher Scientific) were then added to 384-well plates containing the 11-point dose series of compounds in duplicate (maximum 10 μM concentration for final treatment) at a density of 12,000 cells/well in 30 μl. Plates were then spun briefly, and cells were incubated with compound at 37° C. for 2 hours, 6 hours, or 24 hours.
Following the appropriate treatment time, Nano-Glo® HiBiT Lytic Assay reagents were added to the cells per the manufacturer's instructions by adding 30 μl of reagent per well, and the luminescence signal was acquired by plate reader. Cells treated with DMSO only (no test compound treatment) were used as the negative control (N). Media only (no cells added) with Nano-Glo reagent addition was used as the background or positive control (P). The percent response of compound treated samples were calculated by subtracting out the background signal (P) and normalizing to the DMSO control (N) as follows.
% Response=100×(Treated Signal−Average (P))/(Average (N)−Average (P)).
Data were analyzed with a 4-parameter logistic fit to generate sigmoidal dose-response curves. The DC50 is the concentration of compound at which 50% of the cellular BRAF V600E has been degraded. The Emax, or maximum effect of each compound, represents the amount of residual protein remaining in the cell following compound treatment. The IP, or inflection point of the dose-response curve, is the concentration of compound at which 50% of the observed degradation response is achieved.
The experiment was conducted at least once for each compound. If the experiment was conducted multiple times, the data shown in the table is the average of the two or more experiments.

Setting [1] is: A375.10 cells, BRAF V600E, 2 hours, inflection point, read-out: HiBiT-Degradation A375.10 BRAF 2 hours IP.
[2] abbreviates: A375.10 cells, BRAF V600E, 2 hours, read-out: HiBiT-Degradation A375.10 BRAF 2 hours DC50.
The mark [3] stands for this setting: A375.10 cells, BRAF V600E, 2 hours, residual protein remaining.

The term GI50 denotes the concentration giving 50% growth inhibition.

Like-named read-outs stand apart in the source and are kept apart here.

T1 sequence (P15056 whole entry V600E): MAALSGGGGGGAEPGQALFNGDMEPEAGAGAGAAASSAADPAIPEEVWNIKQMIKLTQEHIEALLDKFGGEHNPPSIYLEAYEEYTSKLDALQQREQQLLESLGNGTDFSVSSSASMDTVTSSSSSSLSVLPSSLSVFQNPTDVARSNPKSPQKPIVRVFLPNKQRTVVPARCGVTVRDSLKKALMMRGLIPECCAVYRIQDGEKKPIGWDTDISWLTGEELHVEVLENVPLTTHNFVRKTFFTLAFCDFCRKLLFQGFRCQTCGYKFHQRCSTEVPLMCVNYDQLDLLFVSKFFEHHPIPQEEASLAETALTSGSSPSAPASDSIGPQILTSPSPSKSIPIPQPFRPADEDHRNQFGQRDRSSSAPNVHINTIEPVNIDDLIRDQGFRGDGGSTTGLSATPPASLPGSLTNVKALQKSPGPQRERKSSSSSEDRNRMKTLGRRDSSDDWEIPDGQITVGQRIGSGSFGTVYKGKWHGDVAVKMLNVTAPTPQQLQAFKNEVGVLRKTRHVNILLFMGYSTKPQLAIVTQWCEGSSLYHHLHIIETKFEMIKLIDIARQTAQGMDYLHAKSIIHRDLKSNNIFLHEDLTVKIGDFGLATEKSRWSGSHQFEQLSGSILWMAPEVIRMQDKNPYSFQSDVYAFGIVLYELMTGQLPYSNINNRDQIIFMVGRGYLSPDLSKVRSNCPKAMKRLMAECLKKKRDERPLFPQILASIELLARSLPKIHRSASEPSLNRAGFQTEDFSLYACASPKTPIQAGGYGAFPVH
T1 sequence (Q96SW2 whole entry): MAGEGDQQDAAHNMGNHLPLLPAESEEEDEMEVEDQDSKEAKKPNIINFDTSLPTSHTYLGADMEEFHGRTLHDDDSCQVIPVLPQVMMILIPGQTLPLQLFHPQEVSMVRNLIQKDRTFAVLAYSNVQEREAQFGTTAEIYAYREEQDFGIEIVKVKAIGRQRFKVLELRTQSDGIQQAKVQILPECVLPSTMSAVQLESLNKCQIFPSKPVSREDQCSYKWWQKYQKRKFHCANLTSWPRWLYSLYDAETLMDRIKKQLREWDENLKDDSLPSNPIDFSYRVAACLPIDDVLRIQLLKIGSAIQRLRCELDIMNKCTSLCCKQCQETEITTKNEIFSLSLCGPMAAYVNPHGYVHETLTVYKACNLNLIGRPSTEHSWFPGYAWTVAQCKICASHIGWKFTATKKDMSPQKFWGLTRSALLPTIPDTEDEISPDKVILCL
T1 sequence (Q16531 whole entry partner): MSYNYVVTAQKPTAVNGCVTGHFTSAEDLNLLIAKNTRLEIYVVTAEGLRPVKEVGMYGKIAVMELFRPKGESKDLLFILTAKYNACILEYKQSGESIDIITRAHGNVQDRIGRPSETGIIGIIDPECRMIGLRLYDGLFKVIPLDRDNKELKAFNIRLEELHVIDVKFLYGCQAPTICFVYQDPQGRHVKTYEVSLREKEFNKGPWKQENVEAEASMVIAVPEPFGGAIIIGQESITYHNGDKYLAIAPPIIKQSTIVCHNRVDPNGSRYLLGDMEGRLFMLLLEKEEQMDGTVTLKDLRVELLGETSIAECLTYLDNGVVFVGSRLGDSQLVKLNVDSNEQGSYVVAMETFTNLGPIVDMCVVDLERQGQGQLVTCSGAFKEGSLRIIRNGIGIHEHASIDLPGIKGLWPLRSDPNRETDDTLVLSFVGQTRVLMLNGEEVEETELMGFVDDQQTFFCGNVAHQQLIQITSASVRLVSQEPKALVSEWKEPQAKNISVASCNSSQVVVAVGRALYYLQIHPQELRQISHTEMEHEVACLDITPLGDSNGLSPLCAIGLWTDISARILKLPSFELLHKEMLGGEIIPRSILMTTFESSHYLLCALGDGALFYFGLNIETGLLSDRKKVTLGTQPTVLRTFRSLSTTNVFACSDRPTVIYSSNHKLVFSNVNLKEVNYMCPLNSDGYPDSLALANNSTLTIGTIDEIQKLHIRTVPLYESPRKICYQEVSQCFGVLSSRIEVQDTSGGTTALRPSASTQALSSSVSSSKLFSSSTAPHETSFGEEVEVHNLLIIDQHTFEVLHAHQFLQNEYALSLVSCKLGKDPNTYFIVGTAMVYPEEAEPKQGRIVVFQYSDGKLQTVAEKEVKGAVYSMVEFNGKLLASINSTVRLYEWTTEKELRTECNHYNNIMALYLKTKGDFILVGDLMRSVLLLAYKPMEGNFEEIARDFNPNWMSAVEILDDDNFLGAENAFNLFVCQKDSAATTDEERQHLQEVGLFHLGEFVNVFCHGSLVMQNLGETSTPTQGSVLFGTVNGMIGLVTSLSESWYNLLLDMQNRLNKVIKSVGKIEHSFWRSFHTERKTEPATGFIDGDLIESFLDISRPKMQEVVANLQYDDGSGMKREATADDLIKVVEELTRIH

As for `CCN(C)S(=O)(=O)Nc1ccc(F)c(Oc2ccc3ncn(C4CCC5(CC4)CCN(C4CCC(c6cc7c(cc6F)c(N6CCC(=O)NC6=O)nn7C)CC4)CC5)c(=O)c3c2)c1C#N` (single isomer, unassigned) [Compound 12], in the experiment with A375-NRAS^Q61K cells, the GI50 was less than 1 µM. For the same molecule, the Emax in the experiment on A375-NRAS^Q61K cells (Homo sapiens, 96 h) was less than 50%; on BRAF V600E (setting [3]), less than 50%. For the same molecule, the DC50 on BRAF V600E (setting [1]) and at BRAF V600E (setting [2]) was less than 1 µM in each case.

In the experiment with A375-NRAS^Q61K cells, `CCN(C)S(=O)(=O)Nc1ccc(F)c(Oc2ccc3ncn(C4CCC5(CC4)CCN(C4CCC(c6cc7c(cc6F)c(N6CCC(=O)NC6=O)nn7C)CC4)CC5)c(=O)c3c2)c1C#N` (single isomer, unassigned) [Compound 13, 9-[6-[2-cyano-3-[[ethyl(methyl)sulfamoyl]amino]-6-fluoro-phenoxy]-4-oxo-quinazolin-3-yl]-3-[4-[3-(2,4-dioxohexahydropyriimidin-1-yl)-5-fluoro-1-methyl-indazol-6-yl]cyclohexyl]-3-azaspiro[5.5]undecane] yielded a GI50 greater than 10 µM. Further, in the experiment with A375-NRAS^Q61K cells, the “CTGlo A375.11 96 hours Emax” value is “** (<90% and >50%)”. Besides, the DC50 on BRAF V600E (setting [1]) and on BRAF V600E (setting [2]) was less than 1 µM throughout. Further, on BRAF V600E (setting [3]), the “HiBiT-Degradation A375.10 BRAF 2 hours Emax” value is recorded as “*** (<=50%)”.

`CCN(C)S(=O)(=O)Nc1ccc(F)c(Oc2ccc3ncn([C@H]4C[C@@H]5CN(C6CCC(c7cc8c(cc7F)c(N7CCC(=O)NC7=O)nn8C)CC6)C[C@@H]5C4)c(=O)c3c2)c1C#N` (single isomer, unassigned) [Compound 15]: in the experiment on A375-NRAS^Q61K cells (Homo sapiens, 96 h), the GI50 was greater than 10 µM. Also, the Emax in the experiment on A375-NRAS^Q61K cells (Homo sapiens, 96 h) was in the range of 50 to 90%; at BRAF V600E (setting [3]) it was 50 to 90%. Further, the DC50 at BRAF V600E (setting [1]) and on BRAF V600E (setting [2]) was less than 1 µM each time.

In the experiment on A375-NRAS^Q61K cells, `CCN(C)S(=O)(=O)Nc1ccc(F)c(Oc2ccc3ncn([C@@H]4C[C@@H]5CN(C6CCC(c7cc8c(cc7F)c(N7CCC(=O)NC7=O)nn8C)CC6)C[C@@H]5C4)c(=O)c3c2)c1C#N` (single isomer, unassigned) [Compound 16] came in with a GI50 of 1 to 10 µM. For the same molecule, the Emax in the experiment with A375-NRAS^Q61K cells (Homo sapiens, 96 h) is less than 50%; on BRAF V600E (setting [3]), 50 to 90%. Also, the DC50 on BRAF V600E (setting [1]) and on BRAF V600E (setting [2]) was less than 1 µM throughout.

For `CCN(C)S(=O)(=O)Nc1ccc(F)c(Oc2ccc3ncn([C@@H]4C[C@@H]5CN(C6CCC(c7cc8c(cc7F)c(N7CCC(=O)NC7=O)nn8C)CC6)C[C@@H]5C4)c(=O)c3c2)c1C#N` (single isomer, unassigned) [Compound 17], in the experiment with A375-NRAS^Q61K cells, the GI50 is greater than 10 µM. In the experiment on A375-NRAS^Q61K cells, the “CTGlo A375.11 96 hours Emax” value was “** (<90% and >50%)”. The DC50 on BRAF V600E (setting [1]) and on BRAF V600E (setting [2]) was less than 1 µM throughout. Also, the “HiBiT-Degradation A375.10 BRAF 2 hours Emax” value on BRAF V600E (setting [3]) is “** (<90% and >50%)”.

Consider `CCN(C)S(=O)(=O)Nc1ccc(F)c(Oc2ccc3ncn([C@@H]4CCC5(CCN(C6CCC(c7ccc(NC8CCC(=O)NC8=O)cc7F)CC6)CC5)C4)c(=O)c3c2)c1C#N` (single isomer, unassigned) [Compound 22], for which the GI50 with A375-NRAS^Q61K cells (Homo sapiens, 96 h) was greater than 10 µM. The Emax in the experiment on A375-NRAS^Q61K cells (Homo sapiens, 96 h) was 50 to 90%; on BRAF V600E (setting [3]) it was 50 to 90%. The DC50 on BRAF V600E (setting [1]) and on BRAF V600E (setting [2]) was less than 1 µM each time.

Turning to `CCN(C)S(=O)(=O)Nc1ccc(F)c(Oc2ccc3ncn([C@H]4CCC5(CCN(C6CCC(c7ccc(NC8CCC(=O)NC8=O)cc7F)CC6)CC5)C4)c(=O)c3c2)c1C#N` (single isomer, unassigned) [Compound 25], in the experiment with A375-NRAS^Q61K cells, the concentration for 50% growth inhibition (GI50) was less than 1 µM; the “CTGlo A375.11 96 hours Emax” value is “** (<90% and >50%)”. The DC50 on BRAF V600E (setting [1]) is less than 1 µM. The DC50 on BRAF V600E (setting [2]) lay within 1 to 10 µM. Besides, on BRAF V600E (setting [3]), the “HiBiT-Degradation A375.10 BRAF 2 hours Emax” value is “** (<90% and >50%)”.

On to `CCN(C)S(=O)(=O)Nc1ccc(F)c(Oc2ccc3ncn([C@@H]4CCC5(CCN(C6CCC(c7cc8c(cc7F)c(N7CCC(=O)NC7=O)nn8C)CC6)CC5)C4)c(=O)c3c2)c1C#N` (single isomer, unassigned) [Compound 32], for which, in the experiment with A375-NRAS^Q61K cells, the GI50 lay within 1 to 10 µM and the “CTGlo A375.11 96 hours Emax” value is “*** (<=50%)”. At BRAF V600E, the “HiBiT-Degradation A375.10 BRAF 2 hours Emax” value is “** (<90% and >50%)”. Further, at BRAF V600E (setting [1]), the DC50 is less than 1 µM. Also, the DC50 at BRAF V600E (setting [2]) is less than 1 µM.
